{"source": "patent US20230212517A1", "about": "“METHODS FOR GENERATING HEMATOPOIETIC STEM CELLS” (The Brigham and Women's Hospital, Inc., priority 2018, published 2023)", "key": {"Dnmt3a": {"system": "Dnmt3a", "assay": "Dnmt3a protein level in nuclear fractions of E11.5 AGM cells (EPIQUIK assay kit)", "format": "cell-based, mouse", "conditions": "nuclear fractions of treated E11.5 AGM cells", "procedure": "RNA-sequencing analyses were performed to measure gene expression patterns in mouse AGM treated with cyclic strain or pharmacological modulators. Using computational algorithms, hierarchical clustering was performed of differentially expressed genes as well as measured their overrepresented biological processes and pathways. Gene expression clusters of differentially expressed genes were analyzed and their mean expression level across cell populations compared. Next, Venn comparison of up- and down-genes was constructed to analyze candidate(s) important for cyclic strain- or pharmacological modulator(s)-mediated the endothelial-to-HSC transition. Furthermore, Dnmt3b and Dnmt3a protein expressions were analyzed in nuclear fractions of mouse AGM cells using EPIQUIK methyltransferase assay kits. Data are presented as mean±s.d. unless otherwise noted. Statistical analyses were performed by paired or un-paired Student's t-tests. Significance was set at P<0.05.\nNuclear extracts from AGM explants were harvested using an EPIQUIK Nuclear Extraction Kit (Epigentek Group Inc.). Dnmt3b and Dnmt3a protein levels were analyzed using a colorimetric EPIQUIK methyltransferase Assay Kit (Epigentek Group Inc.), according to the manufacturer's instructions. Concentration of Dnmt3b and Dnmt3a is relative to 1 μg of nuclear extract proteins."}, "[1]": {"system": "spleen-sorted Cd3+ T cells (donor)", "assay": "PCR assay for TCR-β rearrangement in donor T cells of primary transplant", "format": "in vivo, mouse", "conditions": "primary transplant of treated E11.5 AGM; Mac1+ myeloid cells negative control", "procedure": "(§1) Pulsating blood vessels like conditions were stimulated in vitro using FLEXCELL FX-4000 cell stretching bioreactor machine. To analyze roles of pharmacological targets in regulating the endothelial-to-HSC transition, mouse embryo-derived AGM or whole mouse embryo were exposed ex vivo with biomechanical stretching, chemicals, or drugs. Next, hematopoietic colony formation assays were performed by incubating mouse AGM-derived cells in StemCell M3434 media for seven days. Serial transplantation of AGM-derived HSCs in lethally irradiated SJL mice were performed. The stem cell frequency upon biomechanical stretching was analyzed using a limiting dilution assay. To characterize properties of AGM-HSC-derived blood cells in primary transplants, percentage chimerism and reconstitution was measured using FACS, globin transcripts were analyzed using quantitative reverse transcriptase-PCR, myeloperoxidase amount was measured using PICOKINE ELISA kit, TCR-β rearrangement was analyzed using PCR for TCR-β locus, pre-immune IG detection was analyzed using Thermo-Fisher Mouse Ig Isotyping kit, and delayed-type hypersensitivity was analyzed by injecting sheep RBC (Rockland Immunochemicals) in the footpad of pre-sensitized mice.\nT cells (Cd45.2^+, Cd3^+) and myeloid cells (Cd45.2^+, Mac1^+) were FACS sorted from the splenocytes of 16 week-primary transplanted mice. […]"}, "[2]": {"system": "cd41:eGFP+ HSCs emerging from flk1:mCherry+ endothelial cells", "assay": "Time-lapse confocal imaging of cd41:eGFP+ HSCs emerging from flk1:mCherry+ endothelial cells in transgenic embryos", "format": "in vivo, zebrafish", "conditions": "26-42 hpf", "procedure": "Mice were purchased Cd45.2 (C57BL6/J) and Cd45.1 (SJL) from The Jackson Laboratory and zebrafish morpholinos from GeneTools. Microangiography was performed by injecting fluorescent-labeled dextran dye in the atrium of zebrafish heart and its passage was recorded using live imaging. Immunostaining of zebrafish heart and mouse AGM were analyzed using an inverted fluorescent microscope. Cardiac tamponade, heart rate, and pulse frequency were analyzed in zebrafish embryos using bright field imaging or time-lapse confocal microscopy. The movement of red blood cells in blood vessels was analyzed as well as the endothelial-to-HSC transition in zebrafish transgenic embryos using time-lapse confocal imaging.\nZebrafish embryos were treated with the following chemical modulators in E3 fish media: 100 uM L-NAME (Fisher Scientific), 50 uM Digitoxigenin (Sigma), 25-50 uM Yoda1 (Cayman Chemical), 1 uM Nanaomycin (Nana; Fisher Scientific), 100 uM Gadolinium chloride (GdCl3; Sigma), 5-10 uM 4α-phorbol 12, 13-didecanaote (4Apdd; Sigma), or GSK205 (10 uM).\ncd41: eGFP were crossed with flk1:mCherry zebrafish and flk1:mCherry with lcr:eGFP zebrafish and injected morpholino in their transgenic embryos. Transgenic embryos were mounted in low-melting-point agarose and a spinning-disk confocal microscope was used to perform time-lapse confocal imaging of cd41:eGFP^+ HSCs emerging from flk1^+ endothelium from 30 to 42 hpf. The relative movement of lcr:eGFP^+ red blood cells was analyzed in the context of flk1:mCherry^+ endothelium. We performed image analysis using IMARIS (Bitplane) software."}, "[3]": {"system": "bone marrow-derived Gr1+Mac1+ sorted (donor) neutrophils", "assay": "ELISA quantification of myeloperoxidase (MPO) in donor neutrophils of primary transplant", "format": "in vivo, mouse", "conditions": "overnight culture; primary transplant of treated E11.5 AGM", "procedure": "as §1, with “mice. […]” for “mice.”"}}, "note": "“Also recorded” adds a separate entry of the source.", "data": [{"molecule": "Clc1cccc(Cl)c1CSc1nnc(-c2cnccn2)s1", "note": "[Yoda1, 2-[5-[[(2,6-Dichlorophenyl)methyl]thio]-1,3,4-thiadiazol-2-yl]-pyrazine]", "values": [{"measurement": "Dnmt3a protein expression level", "setting": "Dnmt3a", "result": "not Dnmt3a; also recorded: without impacting the expression of Dnmt3a"}, {"measurement": "T-cell receptor β (TCRβ) locus rearrangement in donor T-cells", "setting": "[1]", "result": "display T-cell receptor β (TCR β) rearrangement"}, {"measurement": "HSC formation (endothelial-to-HSC transition)", "setting": "[2]; control embryos", "result": "stimulates HSC formation"}, {"measurement": "HSC formation (endothelial-to-HSC transition)", "setting": "[2]; sih-MO embryos", "result": "rescues HSC formation"}, {"measurement": "myeloperoxidase (MPO) level of donor neutrophils", "setting": "[3]", "result": "reconstitute to functional myeloid cells displaying sufficient MPO levels"}]}]}
